# Laboratory results reported in patent publication US4992535A, “Methods of making novel R and S diastereomers of N^6 -[(2-hydroxypropyl)aryl]adenosines” (G. D. Searle & Co., priority 1988, dated 1991).
# Entries after “also recorded” stand apart in the source; their conditions may differ.
# Key:
# [1] = test system: PRA in Sprague Dawley rats with renal arteries ligated; experiment: Plasma renin activity (PRA) in the bilateral renal artery ligated rat; type: in vivo; conditions: 1 mg/kg IV; for prevention of PRA increase, in words: 30 and 60 minutes; for Change in PRA at 30 minutes: 30 minutes after dosing; for Change in PRA at 60 minutes: 60 minutes after dosing
# Description: Adenosine Al receptor stimulation will inhibit the release of renin from the kidney. A stimulus for the release of renin is renal ischemia. The ability of the compounds of the present invention to prevent an increase in PRA following renal ischemia was tested in rats with both renal arteries ligated. Sprague Dawley rats were anesthetized with ether and the renal arteries were ligated. Three to five hours after anesthesia, arterial blood was sampled and compounds I, II or III were administered in polyethylene glycol at 1 mg/kg I.V. At 30 and 60 minutes after administration, arterial blood was sampled for PRA measurement by the method of Sealy, J. E. et al., Cardiovasc. Med. 2:1079, 1977.
# [2] = target: T1, adenosine A1 receptor (Rattus norvegicus, UniProt P25099); experiment: Adenosine A1 receptor binding, inhibition of HPIA binding to crude plasma membranes
# T1 construct: Crude plasma membranes were prepared; from tissue; host or cells: crude plasma membranes
# T1 sequence (P25099 1-326): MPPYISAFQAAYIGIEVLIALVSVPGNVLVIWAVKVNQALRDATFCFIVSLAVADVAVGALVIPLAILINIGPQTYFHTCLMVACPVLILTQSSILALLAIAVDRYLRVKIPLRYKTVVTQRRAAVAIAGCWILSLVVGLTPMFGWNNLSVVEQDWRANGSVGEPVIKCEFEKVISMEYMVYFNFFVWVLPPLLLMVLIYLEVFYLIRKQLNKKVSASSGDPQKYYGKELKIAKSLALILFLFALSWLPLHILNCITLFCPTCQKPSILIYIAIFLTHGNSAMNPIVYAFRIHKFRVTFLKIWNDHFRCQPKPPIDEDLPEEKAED
# Description: The binding potency of compound I, II and III to the adenosine Al receptor was measured according to the method of Schwabe, U. et al., Naunyn Schmeid. Arch. Pharmacol. 321:84, 1982. Crude plasma membranes were prepared and varying concentrations of compounds I, II or III were added to the membrane preparation in the presence of ^125 -N-p hydroxyphenyl isopropyladenosine (HPIA). The affinity of the compounds for the adenosine Al receptor was estimated from the concentrations necessary to inhibit the binding of HPIA by 50% (IC50).
# [3] = test system: mice; experiment: Ataxia, rotating rod, in mice; type: in vivo, mouse; conditions: for Percent ataxic, 0.5 hour / Percent ataxic, 3 hour: 54 ± 12 mg/kg ip (pooled 32, 56, 75 mg/kg); for ataxia / motor toxicity compared to compound I, in words: ip, 0.5 or 3 hours
# Description: (§1) Adenosine analogs tend to produce sedation and central nervous system depression which have prevented their therapeutic utility. The compounds of the invention, at doses which lower arterial pressure in the SHR, show no evidence of CNS depression. The ataxia produced by compounds of the present invention was measured in mice by injecting the compounds IP at doses of 32, 56, or 75 mg/kg in an aqueous suspension, n=7 per dose. The mice had previously been trained to remain on a rotating rod. After dosing, the percent of mice unable to remain on the rotating rod was determined. […] The mice were also observed at various time intervals for behavioral signs of toxicity.
# [4] = test system: spontaneously hypertensive rats (SHR); experiment: Mean arterial pressure and heart rate in conscious spontaneously hypertensive rats (IV and intragastric); type: in vivo, rat; conditions: for Maximum decrease at 20 mg/kg ig, HR / Maximum decrease at 20 mg/kg ig, MAP: day 2 of oral administration; for ED (100 b/min decrease) / ED (40 mmHg decrease): Rattus norvegicus, IV; for ED (100 b/min decrease): read-out: IV dose to decrease HR by 100 b/min; for ED (40 mmHg decrease): read-out: IV dose to decrease MAP by 40 mmHg
# Description: The effects of compounds I and II were tested intravenously or intragastrically in conscious spontaneously hypertensive rats (SHR). The rats were anesthetized with ether and the left carotid artery and right jugular vein were cannulated with polyethylene tubing. The rats were allowed three to five hours recovery from anesthesia for the I.V. studies and 12 to 18 hours for the oral studies. Mean arterial pressure (MAP, in mm/Hg) and heart rate (HR, beats/min.) were measured from the artery; intravenous administration of compounds was performed by injection into the vein. Oral administration was performed by gastric intubation. Compounds were dissolved in DMSO for I.V. studies and injected in volumes of […] or less (N=5 per compound). Doses were 3 to 1,000 mg/kg. Compounds were dissolved in polyethylene glycol for oral administration and injected in volumes of 1 ml/kg at dose of 20 mg/kg/day for three days (N=3 to 6 per compound).
# The resting MAP and HR for the SHR ranged between 160-200 mm Hg and 330/350 b/min., respectively.
# [5] = test system: mice; experiment: Behavioral signs of toxicity in mice; type: in vivo; design: key to Motor depression / Ptosis / Respiratory depression / Flaccidity / Loss of righting reflex: +: toxic symptom observed; +*: * = 2/7; +^#: ^# = 5/7; conditions: 75 mg/kg IP
# Description: as §1
# [6] = test system: central nervous system; experiment: CNS toxicity / CNS depression, general statements; type: in vivo; conditions: summary statement
# [7] = test system: hypertensive models; conditions: Federation Proceedings 44:879 & 1643, 1985; cited from earlier work
# [8] = test system: adenosine A1 receptor in the granular juxtaglomerular cells of the kidney; conditions: Federation Proceedings 44:879 & 1643, 1985; cited from earlier work
SMILES,"prevention of PRA increase, in words [1]",Change in PRA at 30 minutes [1],Change in PRA at 60 minutes [1],IC50 [2],"Percent ataxic, 0.5 hour [3]","Percent ataxic, 3 hour [3]","ataxia / motor toxicity compared to compound I, in words [3]","Maximum decrease at 20 mg/kg ig, HR [4]","Maximum decrease at 20 mg/kg ig, MAP [4]",ED (100 b/min decrease) [4],ED (40 mmHg decrease) [4],behavioral toxicity in words ([5]; 18-20 hours),Motor depression ([5]; 0.5 hr),Ptosis ([5]; 0.5 hr),Respiratory depression ([5]; 0.5 hr),Motor depression ([5]; 3 hr),Ptosis ([5]; 3 hr),Respiratory depression ([5]; 3 hr),Flaccidity ([5]; 18-20 hr),Motor depression ([5]; 18-20 hr),further results
"OC[C@H]1O[C@@H](n2cnc3c(NC[C@H](O)COc4cccc5ccccc45)ncnc32)[C@H](O)[C@@H]1O [III, N-[2S-hydroxy-3[1-naphthalenyloxy)propyl]-adenosine]",prevented to the same extent,-6.6 ± 4.0 ngAI/ml/hr,-6.3 ± 3.9 ngAI/ml/hr,1.2 nM,14 ± 0%,57 ± 8%,less motor toxicity than compound I; also recorded: less ataxia at 0.5 or 3 hours as compared to compound I,177 ± 19 b/min,50 ± 14 mmHg,0.031 ± 0.0014 mg/kg,0.033 ± 0.0012 mg/kg,no toxicity was observed,+,+,+,+,+,+,,,"behavioral toxicity, overall comparison in words ([5]; mice): substantially less toxic than compounds I and II; also recorded: less CNS toxic than compound II with regard to behavioral toxicity"
"OC[C@H]1O[C@@H](n2cnc3c(NC[C@@H](O)COc4cccc5ccccc45)ncnc32)[C@H](O)[C@@H]1O [II, N-[2R-hydroxy-3-(1-naphthalenyloxy)propyl]-adenosine]",prevented to the same extent,-11.7 ± 3.5 ngAI/ml/hr,-13.8 ± 4.9 ngAI/ml/hr,1.2 nM,14 ± 8%,48 ± 21%,less motor toxicity than compound I; also recorded: less toxic than compound I with regard to ataxia; also recorded: less ataxia at 0.5 or 3 hours as compared to compound I,202 ± 24 b/min,62 ± 7 mmHg,0.036 ± 0.0012 mg/kg,0.047 ± 0.0012 mg/kg,still producing several of the toxic symptoms,+,+,+,+,+,+,+,+,"central nervous system toxicity, comparison in words [6]: less central nervous system toxicity than the S diastereomer; also recorded: less central nervous system toxicity than the racemic mixture; Ptosis ([5]; 18-20 hr): +; Respiratory depression ([5]; 18-20 hr): +; behavioral toxicity in words ([5]; 24 hours): still producing toxic symptoms; Motor depression ([5]; 24 hr): +^#; Ptosis ([5]; 24 hr): +^#; Respiratory depression ([5]; 24 hr): ^#"
"OC[C@H]1O[C@@H](n2cnc3c(NCC(O)COc4cccc5ccccc45)ncnc32)[C@H](O)[C@@H]1O (mixture of isomers) [Compound I, N(6) [2 hydroxy-3-(1 naphthyloxy)propyl]-adenosine]",prevented to the same extent,-2.9 ± 5.0 ngAI/ml/hr,-9.4 ± 7.4 ngAI/ml/hr,1.2 nM,33 ± 10%,95 ± 5%,,214 ± 14 b/min,50 ± 13 mmHg,0.037 ± 0.0013 mg/kg,0.052 ± 0.0013 mg/kg,still producing several of the toxic symptoms,+,+,+,+,+,+,+*,+,"arterial blood pressure and heart rate, in words [7]: reducing arterial blood pressure and heart rate; binding to the adenosine A1 receptor, in words [8]: binds to the adenosine Al receptor; inhibition of renin release into the plasma, in words [8]: inhibit release of renin into the plasma; Ptosis ([5]; 18-20 hr): +; Respiratory depression ([5]; 18-20 hr): +; behavioral toxicity in words ([5]; 3 hours): also produced flaccidity and loss of writhing reflex; Flaccidity ([5]; 3 hr): +; Loss of righting reflex ([5]; 3 hr): +"
